# pIC50: −log10 of the molar value. Where a SMILES comes first, the peptide text is derived from it. The star is where a group is joined. Cbz = O=C(OCc1ccccc1)*
# Assays:
# 293 cell extract = assay: Cleavage of Z-Pro-Lys-Lys-Glu-AMC (Peptide 1) by 293 cell extract and its inhibition by protease inhibitors; assay type: biochemical, human; set-up: % Inhibition: concentration or dose not given beside the values; conditions: inhibition of Z-Pro-Lys-Lys-Glu-AMC cleavage by 293 cell extract
# Method: Following a 20 minutes incubation at 37° C., fluorescence released due to proteolytic activity was determined using a BMG POLARstar™ Galaxy fluorometer: excitation at 390 nm and emission at 460 nm.
# pro-heparanase (H60) = target: T1, pro-heparanase (H60) (Homo sapiens, UniProt Q9Y251, K307R); assay: Pro-heparanase activation in a cell-based assay (293 cells, DMB assay); conditions: inhibition of pro-heparanase activation; Table 7, 5-(5-Phenyl-furan-2-ylmethylene)rhodanine analogs
# T1 sequence (Q9Y251 36-543 K307R): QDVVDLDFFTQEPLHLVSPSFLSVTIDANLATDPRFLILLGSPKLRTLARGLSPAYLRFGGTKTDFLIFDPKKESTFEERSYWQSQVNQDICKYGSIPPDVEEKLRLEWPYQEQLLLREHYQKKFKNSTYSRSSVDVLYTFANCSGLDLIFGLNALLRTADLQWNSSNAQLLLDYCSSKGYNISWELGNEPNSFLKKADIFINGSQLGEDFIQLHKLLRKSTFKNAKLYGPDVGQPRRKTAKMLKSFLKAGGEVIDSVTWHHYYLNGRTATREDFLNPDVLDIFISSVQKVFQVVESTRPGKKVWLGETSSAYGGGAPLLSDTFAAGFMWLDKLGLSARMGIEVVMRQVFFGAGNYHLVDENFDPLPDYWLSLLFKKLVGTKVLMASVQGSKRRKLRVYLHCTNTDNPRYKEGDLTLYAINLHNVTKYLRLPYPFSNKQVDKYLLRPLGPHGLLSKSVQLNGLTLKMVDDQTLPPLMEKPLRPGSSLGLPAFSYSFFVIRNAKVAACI
Compound,% Inhibition (293 cell extract),pIC50 (pro-heparanase (H60))
"CSCC[C@@H](C=O)NC(=O)[C@H](CC(C)C)NC(=O)[C@H](CC(C)C)NC(C)=O [Calpain inhibitor II, N-Acetyl-Leu-Leu-Met-CHO] (Ac-Leu-Leu-Met-aldehyde)",98%,–
O=C[C@H](Cc1ccc(O)cc1)NC(=O)[C@H](Cc1ccccc1)NC(=O)OCc1ccccc1 [Cathepsin L inhibitor II] (Cbz-Phe-Tyr-aldehyde),97%,–
O=C(O)CCCCCN1C(=O)C(=Cc2ccc(-c3ccc(Cl)cc3)o2)SC1=S [Compound 2],–,6.28
O=C(O)CCCN1C(=O)C(=Cc2ccc(-c3ccccc3[N+](=O)[O-])o2)SC1=S [Compound 3],–,4.84
O=C(O)CCN1C(=O)C(=Cc2ccc(-c3ccccc3)o2)SC1=S [Compound 7],–,5.64
O=C(O)CCN1C(=O)C(=Cc2ccc(-c3ccccc3Cl)o2)SC1=S [Compound 8],–,5.22
O=C(O)CCN1C(=O)C(=Cc2ccc(-c3ccc(Cl)cc3Cl)o2)SC1=S [Compound 9],–,5.52
O=C(O)CCN1C(=O)C(=Cc2ccc(-c3ccccc3[N+](=O)[O-])o2)SC1=S [Compound 10],–,4.52
O=C(O)CCN1C(=O)C(=Cc2ccc(-c3ccc([N+](=O)[O-])cc3)o2)SC1=S [Compound 11],–,5.55
O=C(O)CN1C(=O)C(=Cc2ccc(-c3ccccc3Cl)o2)SC1=S [Compound 14],–,4.49
O=C(O)CN1C(=O)C(=Cc2ccc(-c3cccc(Cl)c3)o2)SC1=S [Compound 15],–,5.70
O=C(O)CN1C(=O)C(=Cc2ccc(-c3ccc(Cl)cc3)o2)SC1=S [Compound 16],–,5.42
O=C(O)CN1C(=O)C(=Cc2ccc(-c3cc(Cl)ccc3Cl)o2)SC1=S [Compound 17],–,4.70
O=C(O)CN1C(=O)C(=Cc2ccc(-c3ccc(Cl)cc3Cl)o2)SC1=S [Compound 18],–,4.74
O=C(O)CN1C(=O)C(=Cc2ccc(-c3ccc([N+](=O)[O-])cc3Cl)o2)SC1=S [Compound 20],–,4.54
O=C(O)CN1C(=O)C(=Cc2ccc(-c3ccc(I)cc3)o2)SC1=S [Compound 22],–,4.57
O=C(O)CN1C(=O)C(=Cc2ccc(-c3ccccc3[N+](=O)[O-])o2)SC1=S [Compound 24],–,4.43
Cc1cc([N+](=O)[O-])ccc1-c1ccc(C=C2SC(=S)N(CC(=O)O)C2=O)o1 [Compound 25],–,4.68
O=C(O)CN1C(=O)C(=Cc2ccc(-c3cccc(C(F)(F)F)c3)o2)SC1=S [Compound 26],–,5.15
O=C(O)CN1C(=O)C(=Cc2ccc(-c3cccc(C(=O)O)c3)o2)SC1=S [Compound 27],–,4.34
O=C1C(=Cc2ccc(-c3cccc([N+](=O)[O-])c3)o2)SC(=S)N1CCS(=O)(=O)O [Compound 35],–,4.39
O=C1NC(=S)SC1=Cc1ccc(-c2ccc(Br)cc2)o1 [Compound 36],–,4.89
Cc1ccc(-c2ccc(C=C3SC(S)=NC3=O)o2)cc1Cl [Compound 37],–,4.74
O=C1C(=Cc2ccc(-c3ccc([N+](=O)[O-])cc3Cl)o2)SC(=S)N1c1ccccc1 [Compound 46],–,3.60
O=C(O)c1cccc(-c2ccc(C=C3SC(=S)N(c4ccccc4)C3=O)o2)c1 [Compound 47],–,5.30
